How the values were obtained:
[1] = tested on: linken Herzvorhofes; assay: Functional refractory period of the isolated left atrium, paired electrical stimulation (antiarrhythmic effect); parameters: species or system Meerschweinchen; details: 0.3 h, concentration prolonging the functional refractory period to 125 % 18 min after application, guinea pig, read-out: Effektive Konzentration zur Erreichung von FRP 125 %
Source text: Der Nachweis der antiarrhythmischen Wirkung der Wirksubstanzen erfolgte experimentell durch Bestimmung der funktionellen Refraktärzeit des linken Herzvorhofes von weiblichen Albino Pirbright-white Meerschweinchen der Gewichtsklasse 300 bis 400 g mit Hilfe der gepaarten elektrischen Stimulation in Anlehnung an die Methode von Govier (W.C. Govier, J. Pharmacol. Exp. Ther. 148 (1) (1965), 100 bis 105). In der nachfolgenden Tabelle 3 ist als FRP 125 % diejenige Konzentration in µmol/l angegeben, bei der es 18 min nach Substanzapplikation zu einer Verlängerung der funktionellen Refraktärzeit auf 125 % kommt.

[2] = tested on: Mäusen; assay: Determination of the minimal toxic dose in mice; assay type: in vivo
Protocol: Männlichen Mäusen von 20-25 g Gewicht werden p.o. Maximaldosen von 300 mg/kg der Testsubstanz verabreicht. Die Tiere werden 3 Stunden lang sorgfältig auf Toxizitätssymptome beobachtet. über einen Zeitraum von 24 Stunden nach der Applikation werden zusätzlich alle Symptome und Todesfälle registriert. Begleitsymptome werden ebenfalls beobachtet und registriert. Wenn Tod oder starke toxische Symptome beobachtet werden, werden weiteren Mäusen zunehmend geringere Dosen verabreicht, bis keine toxischen Symptome mehr auftreten. Die niedrigste Dosis, welche Tod oder starke toxische Symptome hervorruft, wird als minimale toxische Dosis in der nachfolgenden Tabelle 2 angegeben. Tabelle 2

[3] = tested on: spontan schlagenden, isolierten rechten Vorhöfen; assay: Heart rate of spontaneously beating isolated right atria; parameters: species or system Meerschweinchen; details: 20 min, concentration lowering the rate to 75 % of the initial value 20 min after application, guinea pig, read-out: Effektive Konzentration zur Erreichung von FRQ 75 %
Protocol: Der direkte Einfluß der Wirksubstanz auf die Herzfrequenz (FRQ) wurde an spontan schlagenden, isolierten rechten Vorhöfen von weiblichen Albino Pirbright-white Meerschweinchen der Gewichtsklasse von 300 bis 400 g geprüft. In Tabelle 3 ist als FRQ 75 % diejenige Konzentration in µmol/l angegeben, bei der es 20 min nach der Substanzgabe zu einer Abnahme der Frequenz auf 75 % des Ausgangwertes kommt. Tabelle 3

[4] = tested on: narkotisierten Ratten; assay: Myocardial oxygen consumption (double product, method of Neill) in anaesthetised rats; assay type: in vivo; details: used as dihydrochloride; for DP: double product (systolic pressure x heart rate); for FRQ: heart rate; for P₅: systolic blood pressure
Source text: Die Wirkung der Substanzen auf Blutdruck und Herzfrequenz bei i.v.-Dauerinfusion in narkotisierten Ratten wird nach der Methode von Buschmann et al. (J. Cardiovascular Pharmacol. 2 777-781 (1980)) bestimmt.
Männliche Wistar-Ratten (330-370 g Körpergewicht) werden durch i.p.-Applikation von 1,25 g/kg Urethan narkotisiert und tracheotomiert. Nach einer Äquilibrierungsphase von 10 Minuten wird mit den Messungen begonnen. In einer Vorlaufphase von 5 Minuten werden die Ausgangswerte gemessen. Anschließend werden die Prüfsubstanzen gelöst in isotonischer Natriumschloridlösung (gegebenenfalls mit Zusatz eines Lösungsvermittlers) als Dauerinfusion i.v. appliziert, beginnend mit einer Dosis vom 0,01 µmol/kg/min. Die Dosis wird alle 10 Minuten ohne Erhöhung des Infusionsvolumens auf das 10-fache gesteigert. Eine Kontrollgruppe erhält nur wirkstofffreie Lösung appliziert.
In dem gleichen Versuchsmodell wurde auch der Einfluß der Wirksubstanzen auf den myokardialen Sauerstoffverbrauch an narkotisierten Ratten untersucht und anhand der Methode von Neill (Neill, W.Z., H.H. Levine, R.J. Wagman, R. Gorlin, Circulation Research 12 (1963), 163) berechnet. Dazu wird das Produkt aus systolischem Blutdruck und Herzfrequenz (= Doppelprodukt mm Hg x min⁻¹ x 0,01) berechnet. Wie aus der nachstehenden Tabelle 1A ersichtlich ist, reduzieren die Wirksubstanzen dieses Doppelprodukt und führen damit zu einer Sauerstoffeinsparung am Herzen. Tabelle 1A

[5] = mouse, in vivo, po, 300 mg/kg, 1440 min
[6] = anaesthetised rats, 6,6 µmol/kg i.v.
[7] = anaesthetised rats, 2,6 µmol/kg i.v.

Compound | EC (FRP 125%) [1] [µM] | Minimale toxische Dosis [2, 5] [mg/kg] | EC (FRQ 75%) [3] [µM] | also measured
Cc1cccc(CC2C3CC(CN4CCCCC34)C3CCCCN32)c1 (centres unmarked) [Beispiel 518] | 2.58 | >300 | 3.13 | –
c1ccc(CC2C3CC(CN4CCCCC34)C3CCCCN32)cc1 (centres unmarked) [Beispiel 500, 17-Benzylspartein] | 3.52 | – | 1.46 | Minimale toxische Dosis ([2]; p.o., male mice, maximal dose 300 mg/kg, observed 24 h, lowest dose causing death or strong toxic symptoms): >300 mg/kg
COc1cccc(CC2C3CC(CN4CCCCC34)C3CCCCN32)c1 (centres unmarked) [Beispiel 502, 17-(3-Methoxybenzyl)-spartein] | 6.24 | 300 | 2.06 | Änderung DP ([4]; change of double product versus pre-dose values, 6,6 µmol/kg i.v.): -29 Prozent; DP [4, 6]: 312 mm Hg/ min x 100; FRQ [4, 6]: 254 min⁻¹; P₅ [4, 6]: 124 mm Hg
COc1cccc(CC2C3CC(CN4CCCCC34)C3CCCCN32)c1OC (centres unmarked) [Beispiel 6, 17-(2,3-Dimethoxybenzyl)-spartein] | 3.39 | >300 | 4.85 | –
Fc1ccc(CC2C3CC(CN4CCCCC34)C3CCCCN32)cc1 (centres unmarked) [Beispiel 511] | 2.47 | >300 | 5.12 | –
Fc1ccccc1CC1C2CC(CN3CCCCC23)C2CCCCN21 (centres unmarked) [Beispiel 509] | 2.83 | >300 | 4.09 | –
COc1ccccc1CC1C2CC(CN3CCCCC23)C2CCCCN21 (centres unmarked) [Beispiel 501] | 3.71 | 300 | 4.69 | –
Cc1cccc(CC2C3CC(CN4CCCCC34)C3CCCCN32)c1F (centres unmarked) [Beispiel 523] | 2.69 | 300 | 0.95 | –
Cc1ccc(CC2C3CC(CN4CCCCC34)C3CCCCN32)cc1 (centres unmarked) [Beispiel 519] | 3.24 | 300 | 1.9 | –
Clc1ccccc1CC1C2CC(CN3CCCCC23)C2CCCCN21 (centres unmarked) [Beispiel 505] | 2.17 | 300 | 0.99 | Änderung DP ([4]; change of double product versus pre-dose values, 2,6 µmol/kg i.v.): -26 Prozent; DP [4, 7]: 376 mm Hg/ min x 100; FRQ [4, 7]: 306 min⁻¹; P₅ [4, 7]: 121 mm Hg

Reference: patent EP0273272B1, “Pharmaceutical compositions containing 17-benzyl sparteine derivatives with a positive inotropic effect” (Kali-Chemie Pharma GmbH, priority 1986, dated 1988)
